Results from patent US9522128B2 (FUNDACION PARA LA INVESTIGACION BIOMEDICA DEL HOSPITAL …, priority 2008, dated 2016).
Where two headings read alike, the source gives them in different places.

How the values were obtained:
[1] = cited from earlier work; for nature (neutral, anionic, apolar) at physiological pH: 7 or close to 7
[2] = tested on: CD3+ lymphocytes (human T cells)
Description: The sample was centrifuged at 120 g and was resuspended in 750 μL of RPMI medium (in the absence of FCS: fetal calf serum) to quantify the number of cells available using trypan blue. One hundred thousand cells per point were distributed.
Incubation was performed for 4 hours at 37° C. Cells were centrifuged for 6 minutes at 1200 rpm. The precipitate was resuspended in 100 μL of buffer (10 mmol/L HEPES, 150 mmol/L NaCl, 5 mmol/L KCl, 1 mmol/L Mg Cl2, 1.8 mmol/L CaCl2) and 5 μL of annexin-V. It was incubated in the dark for 10 minutes.
Intensity of green fluorescence of cells was quantified as displacement in the logarithmic scale from control (cells growing in 10% FCS) versus the number of cells analyzed. Cell debris was excluded from the analysis.

[3] = tested on: cultures of cells of the proximal tubular epithelium; test: Scanning electron microscopy of cell morphology; settings: 11 days; cyclosporin A 1 μg/mL without or with cilastatin 200 μg/mL
[4] = tested on: rabbits; settings: rabbit, in vivo; cited from earlier work
[5] = tested on: primary cultures of proximal tubular cells (PTCs); test: Cell growth dynamics in primary culture of proximal tubular cells
[6] = tested on: primary cultures of proximal tubular cells; test: Mitochondrial activity using MTT reduction; assay type: cell-based, pig; settings: presence of cilastatin with nephrotoxics
Description: Mitochondrial functionality of PTCs was measured by metabolic reduction of 3-(4,5-dimethylthiazole-2-yl)-2,5-diphenyltetrazole bromide (MTT, supplied by Calbiochem), performed by the mitochondrial enzyme succinate dehydrogenase, yielding a blue-colored compound (formazan). […] MTT was subsequently added to each well at a final concentration of 0.5 mg/mL and incubated for 3 hours at 37° C. in the dark. Once this incubation was completed, 100 μL of lysis buffer (20% SDS in 50% N,N-dimethylformamide, pH 4.7) were added, and the plate was incubated overnight at 37° C. in the dark. Absorbance was measured at 595 nm on the following day.
Percent viability was calculated as follows:
Real time MTT reduction was measured in semiconfluent proximal cells seeded in 24-well plates (16 mm in diameter) in which culture medium was replaced by MTT at 0.5 mg/mL of final concentration in PBS. This reduction was determined by measuring absorbance at 595 nm with an Olympus IX70 inverted fluorescence microscope coupled to a photomultiplier controlled from a SLM Aminco 2000 fluorimeter. […] In this test, as in the previous ones, vancomycin was directly added to the plate during measurement of absorbance. […]

[7] = tested on: primary cultures of proximal tubular cells; settings: 24 hours, with cilastatin; vancomycin, cyclosporin, tacrolimus, acetaminophen, cisplatin, gentamicin
Description: Cells were subsequently detached, and the final volume obtained was recorded. Cell lysate was subjected to a thermal shock, for which it was first heated at 100° C. for 5 min and then placed on ice. Each sample was subjected to sudden decompression. Samples were centrifuged at 12000 rpm for 5 min, and supernatant was collected.
For this purpose, PTCs were incubated with the different nephrotoxics under study, and the cumulative intracellular concentration of toxics in PTCs was quantified, in accordance with the procedure described at the start of the Examples.

[8] = tested on: Wistar rats; test: Preliminary in vivo study of cilastatin nephroprotection against acute toxic renal failure caused by cisplatin; set-up: species or system rat; settings: cisplatin 5 mg/kg plus cilastatin 75 or 150 mg/kg every 12 hours intraperitoneal
Description: Five animals, each subjected to a different treatment regimen, were preliminarily used.
At the time of killing, animals were weighed and anesthetized with ketamine (10 mg/kg) and diazepam (4 mg/kg). Once anesthetized, blood was drawn by cannulation of the abdominal aorta at the bifurcation level. This blood was kept for 30 minutes at 37° C. and subsequently for 1 hour at 4° C., after which it was centrifuged at 2000 rpm for 15 minutes at 4° C. This allowed for separation of blood serum, which was stored at −80° C. until use.

[9] = tested on: Wistar rats; test: Extended in vivo study of cilastatin nephroprotection against acute toxic renal failure caused by cisplatin
Source text: A total of 28 animals were used, which were randomized into 4 groups with a sample size n=6-8 animals per group.
Throughout the period, animals were given free access to both water and feed (standard diet) in a controlled light, temperature, and humidity environment. One day before killing, animals were introduced into metabolic cages with free access to feed and water ad libitum to collect 24-hour urine, in order to quantify urine output and protein concentration.
At the time of killing, animals (previously weighed) were anesthetized in the experimental operating room with ketamine (10 mg/kg) and diazepam (4 mg/kg) and were drawn blood by cannulation of the abdominal aorta at the bifurcation level. Blood was first incubated for 30 minutes at 37° C., and then for one hour at 4° C. Subsequent centrifugation at 2000 rpm for 15 minutes at 4° C. allowed for obtaining blood serum, which was frozen at −80° C. until use. […] Kidneys were subsequently removed, decapsulated, and kept in cold saline during their handling to minimize tissue degradation. Kidneys (right and left) were weighed and were subsequently handled similarly. […] The rest of the right kidneys, as well as left kidneys, were separated into cortex and medulla, and both samples were frozen in liquid nitrogen and stored at −80° C. until use.
Hemodynamic variables and serum and urine kidney function parameters (FIG. 14) were measured using a Dimension RxL autoanalyzer from Dade-Behring according to manufacturer instructions.
This time, urine samples were taken before killing, as indicated in the section describing the procedure.

[10] = Source text: No data have been reported for humans. […] The resulting plot is shown in FIG. 14 (diamonds: rabbit data; triangles: rat data; blank squares: data from pig experiments; filled squares including a white point: data from the summary of product characteristics for humans).
[11] = tested on: primary cultures of proximal tubular cells; settings: 48 h, 11 nephrotoxics
[12] = tested on: primary cultures of proximal tubular cells; settings: cilastatin added to cultures with nephrotoxics, 24 hours
Description: Cells shed to the supernatant were collected by direct aspiration using an automatic pipet, and adherent cells were separated from the culture plate by trypsinization.
The PTCs thus obtained were separately fixed and permeabilized with 70% ethanol and stored at −20° C. After removing ethanol, cells were washed two times with PBS.
The count was performed in a FACScan cytometer (Beckton Dickinson) equipped with a simple argon ion laser. Windows were fixed based on the characteristics of FSC (size), SSC (complexity), FL2-H (height), FL2-A (area), and FL2-W (width). The latter two were used to rule out cell doublets. Analysis was performed using WinMDI 2.9 software.

[13] = tested on: primary cultures of proximal tubular cells; settings: co-incubation with cilastatin; 24 hours aggression (12 hours for cisplatin), long-term survival 7 days
[14] = tested on: renal degradation of imipenem; settings: with cilastatin; cited from earlier work
[15] = tested on: tubular endothelium; settings: dose of 1 g/kg/day; Sack 1985; cited from earlier work
[16] = target: DHP-I (Homo sapiens, UniProt P16444); settings: Koller 1985, Campbell 1988; cited from earlier work
DHP-I, sequence (P16444 17-385): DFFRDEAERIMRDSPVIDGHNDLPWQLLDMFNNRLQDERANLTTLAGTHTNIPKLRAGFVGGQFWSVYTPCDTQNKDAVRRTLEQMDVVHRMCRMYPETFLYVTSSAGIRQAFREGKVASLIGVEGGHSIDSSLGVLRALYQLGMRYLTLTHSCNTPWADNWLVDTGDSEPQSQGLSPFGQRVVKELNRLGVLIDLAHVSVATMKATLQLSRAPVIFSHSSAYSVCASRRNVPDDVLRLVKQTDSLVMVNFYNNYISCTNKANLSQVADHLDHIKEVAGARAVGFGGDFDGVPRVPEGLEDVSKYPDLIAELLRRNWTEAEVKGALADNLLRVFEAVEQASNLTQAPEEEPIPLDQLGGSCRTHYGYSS

[17] = tested on: humans; settings: period immediately subsequent to transplant; cited from earlier work
[18] = tested on: cells of pig proximal tubular epithelium in primary culture

In the case of N.N.[Cl][Pt][Cl] [Cisplatin, cis-diaminodychloroplatin II], the “nature (neutral, anionic, apolar) at physiological pH” value (from here on “nature … at physiological pH”) [1] is listed as “neutral”.

In the case of Gentamicin, the “nature … at physiological pH” value [1] is given as “neutral”.

In the case of ClC(Cl)Cl [Chloroform, CHCl3], the “nature … at physiological pH” value [1] is listed as “apolar”.

In the case of O=C(O)P(=O)(O)O [Foscarnet, phosphonoformic acid], the “SOLUBILITY IN ORGANIC MEDIA” value ([1]; in words) is given as “insoluble”, the “SOLUBILITY IN WATER” value ([1]; in words) is given as “soluble in water” and the “nature … at physiological pH” value [1] is given as “anionic”.

For C[C@@H]1[C@H](O)[C@@H](C)/C=C/C=C/C=C/C=C/C=C/C=C/C=C/[C@H](O[C@@H]2O[C@H](C)[C@@H](O)[C@H](N)[C@@H]2O)C[C@@H]2O[C@](O)(C[C@@H](O)C[C@@H](O)[C@H](O)CC[C@@H](O)C[C@@H](O)CC(=O)O[C@H]1C)C[C@H](O)[C@H]2C(=O)O [Amphotericin B], the “SOLUBILITY IN ORGANIC MEDIA” value ([1]; DMF + HCl) is given as “DMF + HCl (60-80 mg/mL)”, the “SOLUBILITY IN ORGANIC MEDIA” value ([1]; DMF) is given as “soluble in DMF (2-4 mg/mL),” and the “SOLUBILITY IN ORGANIC MEDIA” value ([1]; DMSO) is given as “DMSO (30-40 mg/mL)”. For the same molecule, the “nature … at physiological pH” value [1] was “anionic” and the “SOLUBILITY IN WATER” value ([1]; water at pH 2 or pH 11) was 11 (0.1 mg/mL).

In the case of Cyclosporin A, the “percent cell death of human T cells” value ([2]; cyclosporin A at different doses) is reported as “dose-response effect of the lethal effect” and the “cell morphology by scanning electron microscopy” value [3] is reported as “causes cytosolic condensation, cell rupture, and monolayer disruption”.

For C[C@@H](O)[C@H]1C(=O)N2C(C(=O)O)=C(SCCN=CN)C[C@H]12 [imipenem], the tubular toxicity [4] is given as “may cause tubular toxicity”.

In the case of CN[C@H](CC(C)C)C(=O)NC1C(=O)N[C@@H](CC(N)=O)C(=O)N[C@H]2C(=O)N[C@H]3C(=O)N[C@H](C(=O)N[C@@H](C(=O)O)c4cc(O)cc(O)c4-c4cc3ccc4O)[C@H](O)c3ccc(c(Cl)c3)Oc3cc2cc(c3OC2O[C@@H](CO)[C@@H](O)[C@H](O)[C@@H]2O[C@@H]2C[C@](C)(N)[C@H](O)[C@@H](C)O2)Oc2ccc(cc2Cl)[C@H]1O (stereo partly shown) [Vancomycin], the “SOLUBILITY IN WATER” value ([1]; in words) is listed as “water-soluble” and the “SOLUBILITY IN WATER” value ([1]; in words, listed as VANCOMYCIN) is listed as “high”.

For C[C@H](O)C(=O)Nc1c(I)c(C(=O)NC(CO)CO)c(I)c(C(=O)NC(CO)CO)c1I [Iopamidol], the “SOLUBILITY IN ORGANIC MEDIA” value ([1]; in words) is listed as “soluble in methanol insoluble”, the “SOLUBILITY IN WATER” value ([1]; in words) is listed as “soluble in water” and the “nature … at physiological pH” value [1] is listed as “anionic”.

In the case of C=CC[C@@H]1/C=C(\C)C[C@H](C)C[C@H](OC)[C@H]2O[C@@](O)(C(=O)C(=O)N3CCCC[C@H]3C(=O)O[C@H](/C(C)=C/[C@@H]3CC[C@@H](O)[C@H](OC)C3)[C@H](C)[C@@H](O)CC1=O)[C@H](C)C[C@@H]2OC.O [Tacrolimus], the “SOLUBILITY IN ORGANIC MEDIA” value ([1]; in words) is listed as “high”, the “SOLUBILITY IN WATER” value ([1]; in words) is listed as “insoluble” and the “nature … at physiological pH” value [1] is listed as “apolar”. The “cell growth in the presence of the nephrotoxic” value ([5]; from the time of seeding, cyclosporin A 1 or 10 μg/mL, tacrolimus 50 ng/mL) was “dose-dependently reduced” and the “day of culture from which cell growth is significantly decreased compared to control” value ([5]; post hoc analysis, cyclosporin 1 μg/mL and 10 μg/mL, tacrolimus (FK-506)) was at least 7 days.

In the case of OC[C@@H](O)[C@@H](O)[C@H](O)[C@H](O)CO [Mannitol], the “SOLUBILITY IN WATER” value [1] is given as “(1 g/5.5 mL)”, the “SOLUBILITY IN WATER” value ([1]; in words) is given as “soluble in water” and the “nature … at physiological pH” value [1] is given as “anionic”.

With CC1(C)C[C@@H]1C(=O)N/C(=C\CCCCSC[C@H](N)C(=O)O)C(=O)[O-].[Na+] (relative stereo) [cilastatin, monosodium salt of [R—[R*,S*—(Z)]]-7-[(2-amino-2-carboxyethyl)thio]-2-[[(2,2-dimetylcyclopropyl)carbonyl]amino]-2-heptenoic acid] the “restoration of mitochondrial electronic transfer capacity” value [6] was “totally or partially restores”, the “intracellular accumulation of nephrotoxics” value [7] was “interferes with intracellular administration of all nephrotoxics tested” and the “protective effect on cyclosporin A induced T cell death” value ([2]; cilastatin 200 μg/mL) was “absence of a protective effect”. For the same molecule, the “weight loss or changes in plasma creatinine” value [8] was “no significant weight loss or changes in plasma creatinine”, the “increase of mean weight” value ([9]; cilastatin 75 mg/kg every 12 hours without cisplatin) was “approximately 14 grams” and the “proteinuria and urinary osmolality” value ([9]; cisplatin 5 mg/kg, cilastatin 75 mg/kg every 12 hours intraperitoneal) was “completely reversed the values to normal levels”. The “FINAL WEIGHT” value ([9]; end of the extended study (5 days), mean ± standard error) was 273 ± 7, the “plasma level up to which the dose/plasma level relationship is linear” value ([10]; all species) was “around 800 mg/L” and the minimum effective dose ([10]; estimated) was 10 mg/kg body weight. For the same molecule, the “estimated minimum nephroprotective dose in humans” value ([10]; mean value for a human adult) was 750 mg/day, the “induction of apoptosis (nucleosomes) on co-incubation of nephrotoxics plus cilastatin” value [11] was “induction of apoptosis ceases or is significantly reduced” and the “number of dead cells (sloughed to supernatant, anoikis)” value [12] was “reduced in all cases the number of dead cells”. The “cell growth / colony-forming units after nephrotoxic aggression (crystal violet)” value [13] was “totally or partially restores cell growth”, the “urinary excretion rate of imipenem” value [14] was “up to 70 % of the initial imipenem dose administered” and the “sign of renal toxicity” value [15] was “could cause sloughing of tubular endothelium”. The “conversion of leukotriene D4 to leukotriene E4” value [16] was “strongly inhibited”, the “nephrotoxicity induced by CsA” value [17] was “may effectively counteract” and the “cell morphology by scanning electron microscopy” value [3] was “these changes do not usually occur”. The “effect of co-incubation with cilastatin on the effect of nephrotoxics on cell growth” value ([5]; cilastatin 200 μg/mL with cyclosporin A or tacrolimus) was “partially prevents”, the “effect upon growth dynamics, cell confluence, or monolayer morphology” value ([5]; increasing cilastatin doses for 14 days, up to almost 10 times plasma concentrations reached in vivo) was “No significant effect” and the “day of culture from which cell growth recovers with cilastatin” value ([5]; with cyclosporin) was at least 11 days. The “time from which cell growth recovers with cilastatin” value ([5]; with tacrolimus (FK-506), decrease from day 7) was “from the same time”.

For CCCCC[C@@H](O)[C@H]1C(=O)O[C@H](C)[C@@H](O)/C=C/C=C/C=C/C=C/C=C(\C)[C@@H](O)C[C@H](O)C[C@H](O)C[C@H](O)C[C@H](O)C[C@H](O)C[C@@H]1O [filipin], the cell death [18] was “causes cell death in a short time” and the “internalization of fluorescent toxin B labeled caveolae from cell membrane to Golgi apparatus” value ([18]; […], cilastatin 200 μg/mL or filipin 50 μg/mL, pre-incubated 20 minutes) was “prevents their internalization”.

In the case of CC(=O)Nc1ccc(O)cc1 [Acetaminophen, N-(4-hydroxyphenyl)ethanamide], the “SOLUBILITY IN WATER” value ([1]; in words) is listed as “moderately soluble in”, the “SOLUBILITY IN ORGANIC MEDIA” value ([1]; in words, in ethanol and acetone) is listed as “soluble in ethanol and acetone” and the “SOLUBILITY IN ORGANIC MEDIA” value ([1]; in words, in serum) is listed as “insoluble in serum”. For the same molecule, the “nature … at physiological pH” value [1] was “neutral”.
